Experimental findings from article PMC12046209, “Structure, Oligomerization, and Thermal Stability of a Recently Discovered Old Yellow Enzyme” (Proteins, 2025) are described below.

In this assay the target is T1, FOYE (Old Yellow Enzyme from Ferrovum sp. JA12) (Ferrovum sp., UniProt Z9U1E9MGE1).
T1 construct: pET-28a(+), N-terminal 6xHis tag with thrombin site (removal not described; two tag residues visible in crystal); E. coli BL21(DE3) Star pLysS; homotetramer
T1 sequence (Z9U1E9MGE1 20-373): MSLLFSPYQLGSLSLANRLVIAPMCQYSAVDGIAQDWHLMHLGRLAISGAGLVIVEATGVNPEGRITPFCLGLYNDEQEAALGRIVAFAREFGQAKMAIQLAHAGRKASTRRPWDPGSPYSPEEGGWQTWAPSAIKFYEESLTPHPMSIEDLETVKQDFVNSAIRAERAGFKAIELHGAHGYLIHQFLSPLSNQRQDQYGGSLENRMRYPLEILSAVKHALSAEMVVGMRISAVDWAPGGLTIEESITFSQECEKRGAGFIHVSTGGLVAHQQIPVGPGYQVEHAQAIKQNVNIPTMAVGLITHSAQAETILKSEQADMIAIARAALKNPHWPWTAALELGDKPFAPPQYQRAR
Briefly: X-ray crystal structure. The assay is classed as binding. The settings on record: co-purified cofactor, present in all four protomers; crystals from Morpheus II condition E4, 20°C.

Consider `Cc1cc2nc3c(=O)[nH]c(=O)nc-3n(C[C@H](O)[C@H](O)[C@H](O)COP(=O)(O)O)c2cc1C` [FMN], for which the X-ray crystal structure result was “The electron density for the FMN is clearly visible in all the protomers”.
